Experimental data: patent US8192962B2, “Processes for detecting toxic substances” (Daikin Industries, Ltd., priority 2001, dated 2012)

System: Transport facilitation protein genes
Test: DNA chip mRNA expression in yeast, transport facilitation protein genes (Table 5)
Type: cell-based, Saccharomyces cerevisiae S288C
Procedure, shortened: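 Whole-genome yeast DNA chip hybridization (65° C., >12 h) of Cy-labeled cDNA from S288C cells exposed 2 h at 25° C. to a sub-lethal toxicant dose in YPD; value is intensity relative to chemical-free control.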

[Cl][Hg][Cl] [(3), HgCl2]
The level of expressed mRNA in the presence of chemical substance/The level of expressed mRNA in the absence of chemical substance (yeast gene YBL030C): 4.5
The level of expressed mRNA in the presence of chemical substance/The level of expressed mRNA in the absence of chemical substance (yeast gene YBL099W): 3.1
The level of expressed mRNA in the presence of chemical substance/The level of expressed mRNA in the absence of chemical substance (yeast gene YBR052C): 1.5
The level of expressed mRNA in the presence of chemical substance/The level of expressed mRNA in the absence of chemical substance (yeast gene YBR068C): 1.9
The level of expressed mRNA in the presence of chemical substance/The level of expressed mRNA in the absence of chemical substance (yeast gene YBR127C): 2.2
The level of expressed mRNA in the presence of chemical substance/The level of expressed mRNA in the absence of chemical substance (yeast gene YBR132C): 2.4
The level of expressed mRNA in the presence of chemical substance/The level of expressed mRNA in the absence of chemical substance (yeast gene YBR207W): 0.8
The level of expressed mRNA in the presence of chemical substance/The level of expressed mRNA in the absence of chemical substance (yeast gene YBR293W): 1.0
The level of expressed mRNA in the presence of chemical substance/The level of expressed mRNA in the absence of chemical substance (yeast gene YBR294W): 0.9
The level of expressed mRNA in the presence of chemical substance/The level of expressed mRNA in the absence of chemical substance (yeast gene YBR295W): 3.3
The level of expressed mRNA in the presence of chemical substance/The level of expressed mRNA in the absence of chemical substance (yeast gene YBR298C): 1.6
The level of expressed mRNA in the presence of chemical substance/The level of expressed mRNA in the absence of chemical substance (yeast gene YCL025C): 2.5
The level of expressed mRNA in the presence of chemical substance/The level of expressed mRNA in the absence of chemical substance (yeast gene YCL038C): 1.4
The level of expressed mRNA in the presence of chemical substance/The level of expressed mRNA in the absence of chemical substance (yeast gene YCR024C-A): 3.2
The level of expressed mRNA in the presence of chemical substance/The level of expressed mRNA in the absence of chemical substance (yeast gene YCR037C): 0.8
The level of expressed mRNA in the presence of chemical substance/The level of expressed mRNA in the absence of chemical substance (yeast gene YCR098C): 1.7
The level of expressed mRNA in the presence of chemical substance/The level of expressed mRNA in the absence of chemical substance (yeast gene YDL128W): 2.1
The level of expressed mRNA in the presence of chemical substance/The level of expressed mRNA in the absence of chemical substance (yeast gene YDL198C): 2.1
The level of expressed mRNA in the presence of chemical substance/The level of expressed mRNA in the absence of chemical substance (yeast gene YDL210W): 2.7
The level of expressed mRNA in the presence of chemical substance/The level of expressed mRNA in the absence of chemical substance (yeast gene YDL245C): 1.6
The level of expressed mRNA in the presence of chemical substance/The level of expressed mRNA in the absence of chemical substance (yeast gene YDR038C): 3.1
The level of expressed mRNA in the presence of chemical substance/The level of expressed mRNA in the absence of chemical substance (yeast gene YDR039C): 3.2
The level of expressed mRNA in the presence of chemical substance/The level of expressed mRNA in the absence of chemical substance (yeast gene YDR086C): 1.2
The level of expressed mRNA in the presence of chemical substance/The level of expressed mRNA in the absence of chemical substance (yeast gene YDR270W): 1.4
The level of expressed mRNA in the presence of chemical substance/The level of expressed mRNA in the absence of chemical substance (yeast gene YDR298C): 2.6
The level of expressed mRNA in the presence of chemical substance/The level of expressed mRNA in the absence of chemical substance (yeast gene YDR342C): 12.2
The level of expressed mRNA in the presence of chemical substance/The level of expressed mRNA in the absence of chemical substance (yeast gene YDR343C): 20.6
The level of expressed mRNA in the presence of chemical substance/The level of expressed mRNA in the absence of chemical substance (yeast gene YDR345C): 5.6
The level of expressed mRNA in the presence of chemical substance/The level of expressed mRNA in the absence of chemical substance (yeast gene YDR387C): 1.2
The level of expressed mRNA in the presence of chemical substance/The level of expressed mRNA in the absence of chemical substance (yeast gene YDR497C): 0.6
The level of expressed mRNA in the presence of chemical substance/The level of expressed mRNA in the absence of chemical substance (yeast gene YEL027W): 3.4
The level of expressed mRNA in the presence of chemical substance/The level of expressed mRNA in the absence of chemical substance (yeast gene YEL063C): 2.4
The level of expressed mRNA in the presence of chemical substance/The level of expressed mRNA in the absence of chemical substance (yeast gene YEL065W): 1.2
The level of expressed mRNA in the presence of chemical substance/The level of expressed mRNA in the absence of chemical substance (yeast gene YER053C): 1.9
The level of expressed mRNA in the presence of chemical substance/The level of expressed mRNA in the absence of chemical substance (yeast gene YFL011W): 3.7
The level of expressed mRNA in the presence of chemical substance/The level of expressed mRNA in the absence of chemical substance (yeast gene YFL041W): 1.4
The level of expressed mRNA in the presence of chemical substance/The level of expressed mRNA in the absence of chemical substance (yeast gene YFL050C): 1.1
The level of expressed mRNA in the presence of chemical substance/The level of expressed mRNA in the absence of chemical substance (yeast gene YFL054C): 1.4
The level of expressed mRNA in the presence of chemical substance/The level of expressed mRNA in the absence of chemical substance (yeast gene YGL006W): 1.3
The level of expressed mRNA in the presence of chemical substance/The level of expressed mRNA in the absence of chemical substance (yeast gene YGL008C): 3.1
The level of expressed mRNA in the presence of chemical substance/The level of expressed mRNA in the absence of chemical substance (yeast gene YGL104C): 2.1
The level of expressed mRNA in the presence of chemical substance/The level of expressed mRNA in the absence of chemical substance (yeast gene YGL167C): 1.6
The level of expressed mRNA in the presence of chemical substance/The level of expressed mRNA in the absence of chemical substance (yeast gene YGL255W): 0.9
The level of expressed mRNA in the presence of chemical substance/The level of expressed mRNA in the absence of chemical substance (yeast gene YGR055W): 12.0
The level of expressed mRNA in the presence of chemical substance/The level of expressed mRNA in the absence of chemical substance (yeast gene YGR065C): 2.6
The level of expressed mRNA in the presence of chemical substance/The level of expressed mRNA in the absence of chemical substance (yeast gene YGR082W): 2.2
The level of expressed mRNA in the presence of chemical substance/The level of expressed mRNA in the absence of chemical substance (yeast gene YGR096W): 1.1
The level of expressed mRNA in the presence of chemical substance/The level of expressed mRNA in the absence of chemical substance (yeast gene YGR138C): 1.0
The level of expressed mRNA in the presence of chemical substance/The level of expressed mRNA in the absence of chemical substance (yeast gene YGR191W): 1.6
The level of expressed mRNA in the presence of chemical substance/The level of expressed mRNA in the absence of chemical substance (yeast gene YGR197C): 2.5
